Activity calls are given as the source filed them. For most assays here, no stated cut-off is given here; in the data, actives have a measured Kd and inactives only a lower limit.
Key:
[1] = target: T1, EKC/KEOPS complex subunit TP53RK (Homo sapiens, UniProt Q96S44)
T1 sequence (Q96S44 whole entry): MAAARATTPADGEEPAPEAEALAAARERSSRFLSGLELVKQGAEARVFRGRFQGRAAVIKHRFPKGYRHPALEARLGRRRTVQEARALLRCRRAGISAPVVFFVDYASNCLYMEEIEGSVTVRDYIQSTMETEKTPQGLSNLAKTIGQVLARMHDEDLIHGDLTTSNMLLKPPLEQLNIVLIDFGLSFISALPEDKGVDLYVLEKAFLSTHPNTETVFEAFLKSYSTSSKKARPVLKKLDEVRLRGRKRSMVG

[2] = target: Platelet-derived growth factor receptor beta (Homo sapiens, UniProt P09619)
Sequence of Platelet-derived growth factor receptor beta (P09619 whole entry, the tested form may be a part): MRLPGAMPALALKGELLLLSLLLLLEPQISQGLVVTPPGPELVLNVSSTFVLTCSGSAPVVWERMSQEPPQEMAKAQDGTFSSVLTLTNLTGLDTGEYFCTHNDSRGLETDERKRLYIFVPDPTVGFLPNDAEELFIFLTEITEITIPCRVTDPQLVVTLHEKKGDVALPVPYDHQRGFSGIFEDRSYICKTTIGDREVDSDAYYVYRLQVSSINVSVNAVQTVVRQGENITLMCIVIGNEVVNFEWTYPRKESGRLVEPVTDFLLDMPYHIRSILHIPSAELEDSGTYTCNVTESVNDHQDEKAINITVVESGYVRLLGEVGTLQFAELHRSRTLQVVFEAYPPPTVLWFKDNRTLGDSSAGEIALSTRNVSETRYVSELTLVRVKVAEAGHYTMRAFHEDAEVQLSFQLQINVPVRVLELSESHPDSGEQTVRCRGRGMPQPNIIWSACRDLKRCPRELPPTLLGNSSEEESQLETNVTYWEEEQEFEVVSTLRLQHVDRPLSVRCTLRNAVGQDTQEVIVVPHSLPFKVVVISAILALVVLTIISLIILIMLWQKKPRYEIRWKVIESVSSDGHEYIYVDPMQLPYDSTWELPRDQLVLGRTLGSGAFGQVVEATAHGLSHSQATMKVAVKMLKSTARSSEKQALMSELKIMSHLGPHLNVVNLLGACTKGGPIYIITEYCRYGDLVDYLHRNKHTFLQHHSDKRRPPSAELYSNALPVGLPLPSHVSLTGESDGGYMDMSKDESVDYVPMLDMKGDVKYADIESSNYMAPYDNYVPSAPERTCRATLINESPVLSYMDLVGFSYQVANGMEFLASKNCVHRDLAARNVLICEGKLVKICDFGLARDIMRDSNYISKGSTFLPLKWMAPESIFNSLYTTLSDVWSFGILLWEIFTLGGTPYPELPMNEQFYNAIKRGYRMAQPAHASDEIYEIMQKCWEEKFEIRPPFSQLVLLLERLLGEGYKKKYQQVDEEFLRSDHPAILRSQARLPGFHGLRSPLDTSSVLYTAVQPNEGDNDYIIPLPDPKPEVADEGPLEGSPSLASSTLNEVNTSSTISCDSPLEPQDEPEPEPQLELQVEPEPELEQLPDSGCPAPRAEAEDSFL

[3] = target: T2, Discoidin domain-containing receptor 2 (Homo sapiens, UniProt Q16832)
T2 sequence (Q16832 whole entry): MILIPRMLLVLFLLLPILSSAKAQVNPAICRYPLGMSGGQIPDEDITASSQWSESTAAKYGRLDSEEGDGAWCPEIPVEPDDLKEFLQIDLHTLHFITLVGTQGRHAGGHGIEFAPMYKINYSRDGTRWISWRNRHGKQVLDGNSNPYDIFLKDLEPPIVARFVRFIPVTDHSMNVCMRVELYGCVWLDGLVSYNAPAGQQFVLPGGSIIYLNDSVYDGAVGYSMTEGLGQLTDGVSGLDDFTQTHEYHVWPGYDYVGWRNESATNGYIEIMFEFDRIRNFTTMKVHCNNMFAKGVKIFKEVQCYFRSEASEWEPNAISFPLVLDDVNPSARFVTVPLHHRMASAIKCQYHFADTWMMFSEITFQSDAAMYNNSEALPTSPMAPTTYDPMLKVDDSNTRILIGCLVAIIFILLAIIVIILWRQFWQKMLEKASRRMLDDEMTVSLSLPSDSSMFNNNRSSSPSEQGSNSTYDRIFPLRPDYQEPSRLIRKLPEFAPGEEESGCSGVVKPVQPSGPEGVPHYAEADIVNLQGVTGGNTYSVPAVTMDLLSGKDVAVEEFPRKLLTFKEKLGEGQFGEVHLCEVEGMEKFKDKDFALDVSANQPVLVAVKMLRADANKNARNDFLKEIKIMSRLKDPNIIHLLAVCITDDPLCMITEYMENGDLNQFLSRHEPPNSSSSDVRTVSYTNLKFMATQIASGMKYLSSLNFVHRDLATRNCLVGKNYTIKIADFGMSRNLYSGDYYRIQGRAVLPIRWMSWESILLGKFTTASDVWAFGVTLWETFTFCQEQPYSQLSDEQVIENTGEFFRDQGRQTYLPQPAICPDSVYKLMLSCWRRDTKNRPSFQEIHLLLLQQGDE

[4] = target: T3, Ribosyldihydronicotinamide dehydrogenase [quinone] (Homo sapiens, UniProt P16083)
T3 sequence (P16083 whole entry): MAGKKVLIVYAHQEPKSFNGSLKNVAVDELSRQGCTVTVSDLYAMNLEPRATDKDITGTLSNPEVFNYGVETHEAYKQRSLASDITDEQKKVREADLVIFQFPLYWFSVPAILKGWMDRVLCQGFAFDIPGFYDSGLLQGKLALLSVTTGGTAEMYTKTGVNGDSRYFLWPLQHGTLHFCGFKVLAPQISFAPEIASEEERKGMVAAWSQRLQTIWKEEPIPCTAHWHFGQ

[5] = target: cAMP-dependent protein kinase type II-alpha regulatory subunit (Homo sapiens, UniProt P13861)
Sequence of cAMP-dependent protein kinase type II-alpha regulatory subunit (P13861 whole entry): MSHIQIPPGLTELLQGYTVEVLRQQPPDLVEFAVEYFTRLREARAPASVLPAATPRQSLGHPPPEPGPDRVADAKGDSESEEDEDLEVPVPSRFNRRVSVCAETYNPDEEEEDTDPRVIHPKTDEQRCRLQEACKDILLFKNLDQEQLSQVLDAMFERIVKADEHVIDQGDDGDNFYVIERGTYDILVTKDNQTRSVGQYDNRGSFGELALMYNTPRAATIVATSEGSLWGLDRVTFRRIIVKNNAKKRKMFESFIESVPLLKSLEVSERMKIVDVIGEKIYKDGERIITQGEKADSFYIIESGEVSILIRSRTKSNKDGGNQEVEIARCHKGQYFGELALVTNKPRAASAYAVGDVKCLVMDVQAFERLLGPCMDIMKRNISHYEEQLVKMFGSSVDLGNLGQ

[6] = target: Eukaryotic translation initiation factor 2-alpha kinase 1 (Homo sapiens, UniProt Q9BQI3)
Sequence of Eukaryotic translation initiation factor 2-alpha kinase 1 (Q9BQI3 whole entry): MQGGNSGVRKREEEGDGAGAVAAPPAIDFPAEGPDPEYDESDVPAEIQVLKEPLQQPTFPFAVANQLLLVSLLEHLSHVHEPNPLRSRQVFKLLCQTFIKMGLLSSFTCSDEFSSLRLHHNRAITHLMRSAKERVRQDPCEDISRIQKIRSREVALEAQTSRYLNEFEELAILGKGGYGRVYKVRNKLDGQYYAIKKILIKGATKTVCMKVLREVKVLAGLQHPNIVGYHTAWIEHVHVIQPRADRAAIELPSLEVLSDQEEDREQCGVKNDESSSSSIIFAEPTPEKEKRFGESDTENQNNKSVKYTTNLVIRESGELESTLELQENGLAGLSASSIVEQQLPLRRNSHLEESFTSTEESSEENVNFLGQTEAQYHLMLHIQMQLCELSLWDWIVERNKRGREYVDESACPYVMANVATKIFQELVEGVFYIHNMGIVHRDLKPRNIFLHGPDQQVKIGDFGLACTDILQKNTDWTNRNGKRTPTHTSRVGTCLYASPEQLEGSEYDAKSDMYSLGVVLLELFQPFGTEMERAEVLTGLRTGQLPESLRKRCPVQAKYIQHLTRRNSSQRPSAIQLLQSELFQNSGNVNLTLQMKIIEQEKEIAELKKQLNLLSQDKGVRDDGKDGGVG

[7] = target: BMP-2-inducible protein kinase (Homo sapiens, UniProt Q9NSY1)
Sequence of BMP-2-inducible protein kinase (Q9NSY1 whole entry): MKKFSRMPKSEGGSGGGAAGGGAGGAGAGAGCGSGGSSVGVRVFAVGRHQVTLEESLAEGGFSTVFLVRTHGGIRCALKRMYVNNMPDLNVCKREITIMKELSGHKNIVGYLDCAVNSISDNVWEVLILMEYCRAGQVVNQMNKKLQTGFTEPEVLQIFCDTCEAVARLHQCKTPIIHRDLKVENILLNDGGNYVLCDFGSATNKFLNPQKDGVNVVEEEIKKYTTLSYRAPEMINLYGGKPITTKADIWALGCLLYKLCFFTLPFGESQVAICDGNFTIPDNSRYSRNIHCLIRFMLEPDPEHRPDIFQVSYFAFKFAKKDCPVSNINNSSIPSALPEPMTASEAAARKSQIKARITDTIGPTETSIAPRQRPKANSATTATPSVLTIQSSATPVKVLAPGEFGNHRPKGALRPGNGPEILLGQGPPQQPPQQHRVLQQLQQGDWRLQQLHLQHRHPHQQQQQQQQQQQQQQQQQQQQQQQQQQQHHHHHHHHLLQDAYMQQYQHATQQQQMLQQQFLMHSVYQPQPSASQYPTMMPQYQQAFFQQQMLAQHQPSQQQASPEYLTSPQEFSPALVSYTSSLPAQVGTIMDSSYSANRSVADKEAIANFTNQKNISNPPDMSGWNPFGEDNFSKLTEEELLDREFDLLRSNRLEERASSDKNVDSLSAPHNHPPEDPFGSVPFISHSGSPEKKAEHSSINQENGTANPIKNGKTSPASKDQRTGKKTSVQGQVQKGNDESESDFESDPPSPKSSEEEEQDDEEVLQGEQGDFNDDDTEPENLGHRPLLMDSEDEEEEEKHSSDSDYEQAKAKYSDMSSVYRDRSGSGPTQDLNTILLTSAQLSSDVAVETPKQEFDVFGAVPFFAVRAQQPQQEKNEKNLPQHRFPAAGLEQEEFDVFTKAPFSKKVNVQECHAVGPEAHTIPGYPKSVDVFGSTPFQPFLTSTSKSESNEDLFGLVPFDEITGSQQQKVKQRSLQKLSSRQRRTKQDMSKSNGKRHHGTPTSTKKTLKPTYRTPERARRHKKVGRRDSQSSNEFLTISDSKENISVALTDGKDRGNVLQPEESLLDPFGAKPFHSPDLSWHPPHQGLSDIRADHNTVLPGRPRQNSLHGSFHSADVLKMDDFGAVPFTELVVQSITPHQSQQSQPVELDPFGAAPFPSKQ

[8] = target: T4, Structural maintenance of chromosomes protein 1A (Homo sapiens, UniProt Q14683)
T4 sequence (Q14683 whole entry): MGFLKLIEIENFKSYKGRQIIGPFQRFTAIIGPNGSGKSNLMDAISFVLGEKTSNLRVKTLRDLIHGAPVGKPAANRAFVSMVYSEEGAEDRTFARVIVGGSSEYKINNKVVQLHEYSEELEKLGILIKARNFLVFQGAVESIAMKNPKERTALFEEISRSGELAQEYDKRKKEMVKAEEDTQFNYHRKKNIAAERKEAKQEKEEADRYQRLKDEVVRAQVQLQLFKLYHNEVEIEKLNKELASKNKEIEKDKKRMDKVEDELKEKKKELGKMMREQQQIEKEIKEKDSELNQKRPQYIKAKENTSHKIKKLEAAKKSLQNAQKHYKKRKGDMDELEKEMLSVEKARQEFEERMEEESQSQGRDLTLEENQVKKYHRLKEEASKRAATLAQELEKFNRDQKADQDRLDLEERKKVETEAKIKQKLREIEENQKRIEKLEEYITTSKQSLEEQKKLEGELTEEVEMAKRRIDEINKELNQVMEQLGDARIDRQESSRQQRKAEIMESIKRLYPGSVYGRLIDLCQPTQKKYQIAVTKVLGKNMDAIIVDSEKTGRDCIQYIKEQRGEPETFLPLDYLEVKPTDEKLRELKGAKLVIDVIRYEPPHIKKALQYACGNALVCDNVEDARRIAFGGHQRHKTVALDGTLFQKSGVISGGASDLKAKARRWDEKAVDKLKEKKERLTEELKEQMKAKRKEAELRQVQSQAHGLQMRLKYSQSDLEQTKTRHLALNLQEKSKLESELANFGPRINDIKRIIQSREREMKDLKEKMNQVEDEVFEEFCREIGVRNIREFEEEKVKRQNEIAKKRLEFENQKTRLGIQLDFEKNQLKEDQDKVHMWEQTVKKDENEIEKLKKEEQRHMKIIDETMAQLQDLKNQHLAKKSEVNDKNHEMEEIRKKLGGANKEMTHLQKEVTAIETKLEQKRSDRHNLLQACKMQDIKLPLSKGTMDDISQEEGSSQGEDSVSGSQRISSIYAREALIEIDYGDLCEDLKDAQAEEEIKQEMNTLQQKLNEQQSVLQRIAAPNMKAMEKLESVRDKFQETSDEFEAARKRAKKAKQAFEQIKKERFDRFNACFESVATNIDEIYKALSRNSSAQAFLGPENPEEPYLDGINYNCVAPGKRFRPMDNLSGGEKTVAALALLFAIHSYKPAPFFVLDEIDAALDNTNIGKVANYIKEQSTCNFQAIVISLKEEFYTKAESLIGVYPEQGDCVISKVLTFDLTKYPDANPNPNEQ

[9] = target: Mitogen-activated protein kinase 7 (Homo sapiens, UniProt Q13164)
Ephrin type-A receptor 7 = Ephrin type-A receptor 7 (Homo sapiens, UniProt Q15375)
Sequence of Ephrin type-A receptor 7 (Q15375 whole entry): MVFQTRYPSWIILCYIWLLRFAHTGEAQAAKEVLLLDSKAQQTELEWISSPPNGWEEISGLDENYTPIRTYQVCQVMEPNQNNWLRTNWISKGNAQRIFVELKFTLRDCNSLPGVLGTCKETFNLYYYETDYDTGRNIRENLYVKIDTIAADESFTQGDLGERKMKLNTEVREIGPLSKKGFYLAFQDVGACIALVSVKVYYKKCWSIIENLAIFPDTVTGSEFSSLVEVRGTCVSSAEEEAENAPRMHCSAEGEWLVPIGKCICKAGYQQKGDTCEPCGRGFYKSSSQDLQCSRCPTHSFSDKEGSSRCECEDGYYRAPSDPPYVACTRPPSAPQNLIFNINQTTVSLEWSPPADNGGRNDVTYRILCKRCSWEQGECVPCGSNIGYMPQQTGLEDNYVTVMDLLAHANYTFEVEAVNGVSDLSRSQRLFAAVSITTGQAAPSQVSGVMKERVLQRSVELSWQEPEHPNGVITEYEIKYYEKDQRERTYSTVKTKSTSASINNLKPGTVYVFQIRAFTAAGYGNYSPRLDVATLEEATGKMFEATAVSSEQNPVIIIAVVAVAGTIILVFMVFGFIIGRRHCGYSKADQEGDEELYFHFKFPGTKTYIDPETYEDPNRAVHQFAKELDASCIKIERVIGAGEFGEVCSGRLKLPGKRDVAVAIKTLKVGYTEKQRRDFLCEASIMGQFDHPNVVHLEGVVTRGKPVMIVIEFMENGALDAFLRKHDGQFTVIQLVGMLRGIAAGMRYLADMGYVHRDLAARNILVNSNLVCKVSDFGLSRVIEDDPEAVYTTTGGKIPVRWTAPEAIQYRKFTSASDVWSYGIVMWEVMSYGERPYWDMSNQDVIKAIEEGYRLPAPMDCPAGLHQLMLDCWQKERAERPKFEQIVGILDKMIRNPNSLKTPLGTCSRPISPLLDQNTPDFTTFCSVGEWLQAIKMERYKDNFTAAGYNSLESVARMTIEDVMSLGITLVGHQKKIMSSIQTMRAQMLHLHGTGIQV

Aurora kinase B = Aurora kinase B (Homo sapiens, UniProt Q96GD4)
Sequence of Aurora kinase B (Q96GD4 whole entry): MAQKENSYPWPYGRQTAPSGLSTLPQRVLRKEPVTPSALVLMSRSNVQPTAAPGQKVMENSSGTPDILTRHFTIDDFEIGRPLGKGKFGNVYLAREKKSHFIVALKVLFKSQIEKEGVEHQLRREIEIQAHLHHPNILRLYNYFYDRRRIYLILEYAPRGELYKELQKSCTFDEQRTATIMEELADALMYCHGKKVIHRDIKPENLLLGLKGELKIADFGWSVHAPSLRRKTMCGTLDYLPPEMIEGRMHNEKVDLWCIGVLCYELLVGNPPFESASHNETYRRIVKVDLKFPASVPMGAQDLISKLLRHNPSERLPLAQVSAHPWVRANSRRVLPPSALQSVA

Row | Kd [1] | Kd [2] | Kd [3] | Kd [4] | Kd [5] | Kd [6] | Kd [7] | Kd [8] | Kd [9] | Kd (Ephrin type-A receptor 7) | Kd (Aurora kinase B) | SMILES
1 | > 30 µM (inactive) | > 30 µM (inactive) | 1.27 µM (active) | > 30 µM (inactive) | > 30 µM (inactive) | > 30 µM (inactive) |  | > 30 µM (inactive) | > 30 µM (inactive) | > 30 µM (inactive) | 0.371 µM (active) | CCn1cc(-c2ccnc3[nH]c(-c4cccc(CN(C)C)c4)cc23)c(-c2ccc(NC(=O)N(C)C)cc2)n1 [GSK-1070916]
2 | > 30 µM (inactive) | 4.59 µM (active) |  | 88.9 µM (active) | > 30 µM (inactive) | > 30 µM (inactive) | 0.695 µM (active) | > 30 µM (inactive) | > 30 µM (inactive) | 0.615 µM (active) | 0.044 µM (active) | CCS(=O)(=O)c1cccc(-c2cc(C(=O)NC3CCN(C)CC3)c(C)c3[nH]c4ncc(C)cc4c23)c1 [TAK-901]
3 | > 30 µM (inactive) | > 30 µM (inactive) | 4.96 µM (active) | > 30 µM (inactive) | > 30 µM (inactive) |  | 0.014 µM (active) | > 30 µM (inactive) | > 30 µM (inactive) | 0.017 µM (active) | 0.004 µM (active) | CC(C)c1cc(CNc2nc(Nc3cc(C4CC4)[nH]n3)cc(N3CCN(C)CC3)n2)on1 [XL-228]

Continued, compound first:

Row | SMILES | Kd [1] | Kd [2] | Kd [3] | Kd [4] | Kd [5] | Kd [6] | Kd [7] | Kd [8] | Kd [9] | Kd (Ephrin type-A receptor 7) | Kd (Aurora kinase B)
4 | COc1cc(Nc2ncc3c(n2)-c2ccc(Cl)cc2C(c2c(F)cccc2OC)=NC3)ccc1C(=O)O [ALISERTIB] | > 30 µM (inactive) | > 30 µM (inactive) | > 30 µM (inactive) | > 30 µM (inactive) | > 30 µM (inactive) | > 30 µM (inactive) | > 30 µM (inactive) | > 30 µM (inactive) | > 30 µM (inactive) | > 30 µM (inactive) | 
5 | O=C(Nc1c[nH]nc1-c1nc2cc(CN3CCOCC3)ccc2[nH]1)NC1CC1 [AT-9283] | > 30 µM (inactive) | > 30 µM (inactive) | > 30 µM (inactive) | > 30 µM (inactive) | > 30 µM (inactive) | > 30 µM (inactive) |  | > 30 µM (inactive) | > 30 µM (inactive) | 0.008 µM (active) | 0.017 µM (active)
6 | Cc1nc2cc(-n3ncc(C(=O)c4cc5ccccc5[nH]4)c3N)ccc2[nH]1 [FGFR INHIBITOR DEBIO 1347] | > 30 µM (inactive) | > 30 µM (inactive) | > 30 µM (inactive) | > 30 µM (inactive) | > 30 µM (inactive) | > 30 µM (inactive) | > 30 µM (inactive) | > 30 µM (inactive) | > 30 µM (inactive) |  | > 30 µM (inactive)
7 | Cc1[nH]c(/C=C2\C(=O)Nc3ccccc32)c(C)c1CCC(=O)O [ORANTINIB] | > 30 µM (inactive) | 0.744 µM (active) | > 30 µM (inactive) | > 30 µM (inactive) | > 30 µM (inactive) | > 30 µM (inactive) | 0.303 µM (active) | > 30 µM (inactive) | > 30 µM (inactive) | > 30 µM (inactive) | 
8 | CCOc1cc2ncc(C#N)c(Nc3ccc(F)c(Cl)c3)c2cc1NC(=O)/C=C/CN(C)C [PELITINIB] | > 30 µM (inactive) | > 30 µM (inactive) | > 30 µM (inactive) | > 30 µM (inactive) | > 30 µM (inactive) | > 30 µM (inactive) |  | > 30 µM (inactive) | > 30 µM (inactive) | > 30 µM (inactive) | > 30 µM (inactive)
9 | CO[C@H]1C[C@@H]2CC[C@@H](C)[C@@](O)(O2)C(=O)C(=O)N2CCCC[C@H]2C(=O)O[C@H]([C@H](C)C[C@@H]2CC[C@@H](OP(C)(C)=O)[C@H](OC)C2)CC(=O)[C@H](C)/C=C(\C)[C@@H](O)[C@@H](OC)C(=O)[C@H](C)C[C@H](C)/C=C/C=C/C=C/1C [RIDAFOROLIMUS] | > 30 µM (inactive) | > 30 µM (inactive) | > 30 µM (inactive) | > 30 µM (inactive) | > 30 µM (inactive) | > 30 µM (inactive) | > 30 µM (inactive) | > 30 µM (inactive) | > 30 µM (inactive) |  | > 30 µM (inactive)
10 | CO[C@H]1C[C@@H]2CC[C@@H](C)[C@@](O)(O2)C(=O)C(=O)N2CCCC[C@H]2C(=O)O[C@H]([C@H](C)C[C@@H]2CC[C@@H](O)[C@H](OC)C2)CC(=O)[C@H](C)/C=C(\C)[C@@H](O)[C@@H](OC)C(=O)[C@H](C)C[C@H](C)/C=C/C=C/C=C/1C [SIROLIMUS] | > 30 µM (inactive) | > 30 µM (inactive) | > 30 µM (inactive) | > 30 µM (inactive) | > 30 µM (inactive) | > 30 µM (inactive) | > 30 µM (inactive) | > 30 µM (inactive) | > 30 µM (inactive) |  | > 30 µM (inactive)
11 | O=C1NC(=O)[C@@H](c2cn3c4c(cccc24)CCC3)[C@@H]1c1c[nH]c2ccccc12 [TIVANTINIB] | > 30 µM (inactive) | > 30 µM (inactive) | > 30 µM (inactive) | > 30 µM (inactive) | > 30 µM (inactive) | > 30 µM (inactive) | > 30 µM (inactive) | > 30 µM (inactive) | > 30 µM (inactive) |  | > 30 µM (inactive)
12 | Cn1ncc(Cl)c1-c1cc(C(=O)N[C@H](CN)Cc2ccc(F)c(F)c2)oc1Cl [UPROSERTIB] | > 30 µM (inactive) | > 30 µM (inactive) | > 30 µM (inactive) | > 30 µM (inactive) | > 30 µM (inactive) | > 30 µM (inactive) | > 30 µM (inactive) |  |  | > 30 µM (inactive) | > 30 µM (inactive)

Source: ChEMBL document CHEMBL3991601, “The target landscape of clinical kinase drugs” (Science, 2017)
